Our source for the relative viability values is the supplement of paper PMC10307832.

What all share (test): relative viability (nuclei count vs DMSO), 5 days (fraction); higher = more cells survive
Compound in the test “DM3189 + Bortezomib”: C1CN(CCN1)C2=CC=C(C=C2)C3=CN4C(=C(C=N4)C5=CC=NC6=CC=CC=C56)N=C3 [DM3189] + CC(C)C[C@H](NC(=O)[C@H](Cc1ccccc1)NC(=O)c1cnccn1)B(O)O [Bortezomib] (partner 0.002 µM)
The method, boiled down: (§1)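 Cells from lung cancer lines were seeded into 1536-well plates and, one day later, dosed by pin tool. Treatments were either a single drug or a fixed dose of an anchor drug with five library-drug doses (not always all listed) in √10 steps. After 5 days, nuclei were stained in a one-step fixation (final 0.05% Triton X-100, 1% formaldehyde, 1 ug/ml Hoechst) and counted on 4× images, and relative viability is the treated-to-vehicle nuclei ratio, as the median of duplicate plates.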

Compound in the test “DM3189 + OSI-027”: C1CN(CCN1)C2=CC=C(C=C2)C3=CN4C(=C(C=N4)C5=CC=NC6=CC=CC=C56)N=C3 [DM3189] + COc1cccc2cc(-c3nc([C@H]4CC[C@H](C(=O)O)CC4)n4ncnc(N)c34)[nH]c12 [OSI-027] (partner 0.5 µM)
The gist of the method:
as §1

Compound in the test “DM3189 + Crizotinib”: C1CN(CCN1)C2=CC=C(C=C2)C3=CN4C(=C(C=N4)C5=CC=NC6=CC=CC=C56)N=C3 [DM3189] + C[C@@H](Oc1cc(-c2cnn(C3CCNCC3)c2)cnc1N)c1c(Cl)ccc(F)c1Cl [Crizotinib] (partner 1 µM)
The gist of the method: as §1

Compound in the test “DM3189 + Pemetrexed”: C1CN(CCN1)C2=CC=C(C=C2)C3=CN4C(=C(C=N4)C5=CC=NC6=CC=CC=C56)N=C3 [DM3189] + Nc1nc2[nH]cc(CCc3ccc(C(=O)N[C@@H](CCC(=O)O)C(=O)O)cc3)c2c(=O)[nH]1 [Pemetrexed] (partner 0.2 µM)
The method, boiled down:
as §1

Compound in the test “DM3189 + Decitabine”: C1CN(CCN1)C2=CC=C(C=C2)C3=CN4C(=C(C=N4)C5=CC=NC6=CC=CC=C56)N=C3 [DM3189] + Nc1ncn([C@H]2C[C@H](O)[C@@H](CO)O2)c(=O)n1 [Decitabine] (partner 2 µM)
The method, boiled down: as §1

Take NCI-H596: the relative viability with DM3189 + Bortezomib (first compound 0.08 µM) is 1.34; with DM3189 + Bortezomib (first compound 0.253 µM), 0.969; with DM3189 + Bortezomib (first compound 0.8 µM), 1.03; with DM3189 + Bortezomib (first compound 2.53 µM), 1.28; in the test with DM3189 + OSI-027 (first compound 0.08 µM), 0.799; in the test with DM3189 + OSI-027 (first compound 0.253 µM), 0.746. For the same cell line, the relative viability with DM3189 + OSI-027 (first compound 0.8 µM) is 0.615; in the test with DM3189 + OSI-027 (first compound 2.53 µM) it was 0.643; with DM3189 + Crizotinib (first compound 0.08 µM), 1.15; with DM3189 + Crizotinib (first compound 0.253 µM), 1.01; with DM3189 + Crizotinib (first compound 0.8 µM), 0.93; with DM3189 + Crizotinib (first compound 2.53 µM), 0.943. Further, the relative viability with DM3189 + Pemetrexed (first compound 0.08 µM) was found to be 0.49; in the test with DM3189 + Pemetrexed (first compound 0.253 µM), 0.442; in the test with DM3189 + Pemetrexed (first compound 0.8 µM), 0.512; with DM3189 + Pemetrexed (first compound 2.53 µM), 0.477; with DM3189 + Decitabine (first compound 0.08 µM) it was 1.09; with DM3189 + Decitabine (first compound 0.253 µM), 1.09. Besides, the relative viability amounted to 0.842 with DM3189 + Decitabine (first compound 0.8 µM) and 1.19 with DM3189 + Decitabine (first compound 2.53 µM).

With NCI-H647, the relative viability in the test with DM3189 + Bortezomib (first compound 0.08 µM) amounted to 1.08; with DM3189 + Bortezomib (first compound 0.253 µM) it was 0.871; in the test with DM3189 + Bortezomib (first compound 0.8 µM), 0.667; with DM3189 + Bortezomib (first compound 2.53 µM), 0.35; in the test with DM3189 + OSI-027 (first compound 0.08 µM), 0.724; in the test with DM3189 + OSI-027 (first compound 0.253 µM), 0.579. Moreover, the relative viability came out at 0.585 with DM3189 + OSI-027 (first compound 0.8 µM); 0.528 with DM3189 + OSI-027 (first compound 2.53 µM); 1.12 with DM3189 + Crizotinib (first compound 0.08 µM); 0.877 with DM3189 + Crizotinib (first compound 0.253 µM); 0.883 in the test with DM3189 + Crizotinib (first compound 0.8 µM); 0.307 with DM3189 + Crizotinib (first compound 2.53 µM). Besides, the relative viability with DM3189 + Pemetrexed (first compound 0.08 µM) amounted to 0.185; with DM3189 + Pemetrexed (first compound 0.253 µM) it was 0.178; in the test with DM3189 + Pemetrexed (first compound 0.8 µM), 0.173; in the test with DM3189 + Pemetrexed (first compound 2.53 µM), 0.146; with DM3189 + Decitabine (first compound 0.08 µM), 0.365; with DM3189 + Decitabine (first compound 0.253 µM), 0.43. Further, the relative viability worked out at 0.418 in the test with DM3189 + Decitabine (first compound 0.8 µM) and 0.403 with DM3189 + Decitabine (first compound 2.53 µM).

Consider NCI-H650, for which the relative viability amounted to 1 in the test with DM3189 + Bortezomib (first compound 0.08 µM); 0.765 with DM3189 + Bortezomib (first compound 0.253 µM); 0.635 with DM3189 + Bortezomib (first compound 0.8 µM); 0.655 with DM3189 + Bortezomib (first compound 2.53 µM); 0.578 with DM3189 + OSI-027 (first compound 0.08 µM); 0.496 with DM3189 + OSI-027 (first compound 0.253 µM). For the same cell line, the relative viability with DM3189 + OSI-027 (first compound 0.8 µM) is 0.483; in the test with DM3189 + OSI-027 (first compound 2.53 µM), 0.502; in the test with DM3189 + Crizotinib (first compound 0.08 µM), 0.754; with DM3189 + Crizotinib (first compound 0.253 µM) it was 0.575; with DM3189 + Crizotinib (first compound 0.8 µM) it was 0.594; in the test with DM3189 + Crizotinib (first compound 2.53 µM), 0.661. For the same cell line, the relative viability with DM3189 + Pemetrexed (first compound 0.08 µM) was found to be 1.02; in the test with DM3189 + Pemetrexed (first compound 0.253 µM) it was 0.956; in the test with DM3189 + Pemetrexed (first compound 0.8 µM) it was 0.958; in the test with DM3189 + Pemetrexed (first compound 2.53 µM) it was 0.936; with DM3189 + Decitabine (first compound 0.08 µM) it was 0.288; with DM3189 + Decitabine (first compound 0.253 µM) it was 0.313. Further, the figures for the relative viability with DM3189 + Decitabine (first compound 0.8 µM) and with DM3189 + Decitabine (first compound 2.53 µM) were 0.242 and 0.292, respectively.

In the case of NCI-H661, the relative viability is 0.931 with DM3189 + Bortezomib (first compound 0.08 µM); 0.997 with DM3189 + Bortezomib (first compound 0.253 µM); 1.06 with DM3189 + Bortezomib (first compound 0.8 µM); 1.14 in the test with DM3189 + Bortezomib (first compound 2.53 µM); 0.772 with DM3189 + OSI-027 (first compound 0.08 µM); 0.669 with DM3189 + OSI-027 (first compound 0.253 µM). For the same cell line, the relative viability in the test with DM3189 + OSI-027 (first compound 0.8 µM) was 0.709; with DM3189 + OSI-027 (first compound 2.53 µM), 0.584; with DM3189 + Crizotinib (first compound 0.08 µM), 1; in the test with DM3189 + Crizotinib (first compound 0.253 µM), 1.01; with DM3189 + Crizotinib (first compound 0.8 µM), 0.949; in the test with DM3189 + Crizotinib (first compound 2.53 µM), 1.08. Also, the relative viability with DM3189 + Pemetrexed (first compound 0.08 µM) stood at 1.03; in the test with DM3189 + Pemetrexed (first compound 0.253 µM), 0.861; with DM3189 + Pemetrexed (first compound 0.8 µM), 0.955; in the test with DM3189 + Pemetrexed (first compound 2.53 µM) it was 0.884; with DM3189 + Decitabine (first compound 0.08 µM), 0.673; in the test with DM3189 + Decitabine (first compound 0.253 µM) it was 0.519. Besides, the relative viability with DM3189 + Decitabine (first compound 0.8 µM) is 0.576; with DM3189 + Decitabine (first compound 2.53 µM) it was 0.673.
